Here are results for 3 molecules from patent US20230090552A1, “ALK5 INHIBITOR CONJUGATES AND USES THEREOF” (Synthis Therapeutics, Inc., priority 2020, published 2023).

In one experiment the test system is IPF disease progression. The conditions noted are these: patients with mild-moderate disease; cited from earlier work.
Another experiment addresses T1, ALK5 (Homo sapiens, UniProt P36897).
T1 sequence (P36897 34-503): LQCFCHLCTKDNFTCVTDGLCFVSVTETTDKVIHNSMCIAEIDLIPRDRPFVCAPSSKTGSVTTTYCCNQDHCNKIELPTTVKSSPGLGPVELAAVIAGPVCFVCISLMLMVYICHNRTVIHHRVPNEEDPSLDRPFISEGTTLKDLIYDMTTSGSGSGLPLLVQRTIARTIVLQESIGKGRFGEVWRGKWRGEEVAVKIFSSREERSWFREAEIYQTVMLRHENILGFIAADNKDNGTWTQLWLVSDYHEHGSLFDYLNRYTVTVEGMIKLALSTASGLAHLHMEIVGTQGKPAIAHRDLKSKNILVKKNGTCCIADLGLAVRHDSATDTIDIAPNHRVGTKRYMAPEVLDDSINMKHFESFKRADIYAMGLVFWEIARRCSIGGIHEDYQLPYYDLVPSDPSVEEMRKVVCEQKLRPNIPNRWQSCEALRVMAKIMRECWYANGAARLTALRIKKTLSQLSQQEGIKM
The experiment in a line: recombinant kinase assays (IC50 and Ki). Format: biochemical. To be noted: versus Compound N. The source says:
Compound N was compared to Compound C in a number of in vitro assays.

Consider `COC(=O)c1ccc2c(c1)NC(=O)/C2=C(\Nc1ccc(N(C)C(=O)CN2CCN(C)CC2)cc1)c1ccccc1` [nintedanib], for which, in the experiment with IPF disease progression, the “reduced risk of IPF disease progression” value is 50%.

Regarding `CNCCOc1ccc(-c2cc(-c3c[nH]nc3-c3cccc(C)n3)ccn2)cc1` [Compound C, N-methyl-2-(4-(4-(3-(6-methylpyridin-2-yl)-1H-pyrazol-4-yl)pyridin-2-yl)phenoxy)ethan-1-amine], the “fold more potent than Compound N in the kinase assays” value on ALK5 turned out to be 10 fold.

Turning to `Cc1ccc(=O)n(-c2ccccc2)c1` [pirfenidone], the “reduced risk of IPF disease progression” value in the experiment with IPF disease progression is given as 50%.
